Key:
[1] = molecular target: T1, Leukotriene D4 receptor (Cavia porcellus, UniProt Q2NNR5); assay: Leukotriene D4 receptor binding test; conditions: binding inhibition constant (Ki) vs [3H] LTD4 0.2 nM, lung cell membrane fraction from guinea pigs, 25° C. for 30 minutes; for Ki: read-out: pKi value (converted)
T1 construct: As a receptor sample, a lung cell membrane fraction from guinea pigs was used; from tissue; host or cells: lung membrane fraction of Hartley male guinea pigs
T1 sequence (Q2NNR5 1-340): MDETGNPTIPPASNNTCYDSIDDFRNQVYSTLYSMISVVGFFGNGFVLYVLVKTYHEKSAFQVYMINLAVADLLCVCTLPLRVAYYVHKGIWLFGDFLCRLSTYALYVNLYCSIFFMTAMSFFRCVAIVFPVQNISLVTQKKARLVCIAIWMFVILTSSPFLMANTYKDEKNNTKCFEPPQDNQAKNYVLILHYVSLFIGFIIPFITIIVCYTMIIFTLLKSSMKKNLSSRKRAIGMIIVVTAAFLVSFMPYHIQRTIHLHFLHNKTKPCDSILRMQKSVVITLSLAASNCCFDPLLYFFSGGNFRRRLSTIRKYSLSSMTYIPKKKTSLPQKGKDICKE
Protocol: Leukotriene D4 Receptor Binding Test
As a receptor sample, a lung cell membrane fraction from guinea pigs was used. Preparation of the membrane fraction was carried out according to the method of Ahn et al. (Eur. J. Pharmacol., 127, 153-155 (1986)). Lungs of Hartley male guinea pigs (400 to 500 g body weight, Nippon SLC Co.) were extracted, and perfused with a physiological saline, and then, adding 10 mM of PIPES, 10 mM of MgCl2 and 10 mM of CaCl2 buffer (pH 7.5) to the lung tissue and the mixture was homogenized. This homogenate was centrifuged at 70,000 xg for 10 minutes to obtain a membrane fraction.
Leukotriene D4 (LTD4) recepter binding test was carried out according to the method of Aharony, et al. (J. Pharmacol. Expl.Ther., 243, 921-926 (1987)). To 0.42 mg of the receptor sample were added 10 mM of PIPES, 10 mM of MgCl2 and 10 mM of CaCl2 buffer (pH 7.5) to make the total amount of 480 μl, and 10 μl of [^3H] LTD4 (NEN Life Science Products Co.) and 10 μl of a Test compound in dimethylsulfoxide were added to the mixture, and the resulting mixture was incubated at 25° C. for 30 minutes. The mixtures thus incubated were filtered through a glass fiber filter (Whatman Co., GF/C) using cell harvester (Brandel Co., M-30R). The filter were washed with 10 mM of Tris. and 100 mM of NaCl buffer (pH 7.5), and 5 ml of a liquid scintillator (NACALAI TESQUE INC., clearsol I), and radioactivity was measured by a liquid scintillation analyzer (Packard Co., 2000CA). When a dissociation constant (Kd) of LTD4 was to be obtained, [^3H] LTD4 with 0.03 to 0.5 nM was used, and 1 μM of non-radioactive LTD4 was added. When a binding inhibition constant (Ki) of the Test compound is to be meaured, [^3H] LTD4 with 0.2 nM was used. Kd and Ki are calculated according to the method of Bennett et al. (Neurotransmitter Receptor Binding, 2nd ed., edited by H. I. Yamamura et al., pp. 61-89, Raven Press (1985)).

[2] = system: Leukotriene D4 induced respiratory constriction; assay: Leukotriene D4 induced respiratory constriction test; format: in vivo; conditions: p.o. 1 hr before i.v. LTD4; anesthetized Hartley male guinea pigs; respiratory inner pressure
Protocol: Leukotriene D4 Induced Respiratory Constriction Test
Respiratory constriction was measured by modifying the method of Konzett and Rossler (Arch. Exp. Pathol. Pharmakol., 195, pp. 71-74 (1940)). Hartley male guinea pigs (400 to 500 g body weight, Nippon SLC Co.) were anesthetized with pentobarbital (50 mg/kg, s.c.), and a cannula was inserted into the trachea to carry out artificial ventilation with an artificial ventilator (manufactured by Harvard Co., Model 683). An inner pressure of the respiratory tract was measured by a differential pressure transducer (Nihon Koden, TP-603T) connected to the respiratory cannula and it is used as an index of respiratory constriction.
LTD4 (0.03, 0.06, 0.13, 0.25, 0.5, 1 and 2 μg/kg, Sigma Co.) was intravenously administered from a cannula inserted into the right jugular vein from a low dose with an interval of 5 minutes to cause a respiratory constriction reaction and an increased amount of a respiratory inner pressure was measured. Test compound was suspended in 0.5% sodium carboxymethyl cellulose aqueous solution, and orally administered 1 hour before administration of LTD4. Animals were fasted for 24 hours before administration of the Test compound.
A2=(Dose of Compound administered)/{(ED50 of group to which Compound was added)/(ED50 of control group)−1}

| melting point | Compound | other results |
| --- | --- | --- |
| 243 to 250 °C | O=C([O-])CCSC1c2ccc(F)cc2COc2ccc(/C=C/c3ccc4cc(F)c(F)cc4n3)cc21.[Na+] (stereo not drawn) | – |
| 150 to 152 °C | O=C([O-])CCSC1c2ccccc2COc2ccc(/C=C/c3ccc4c(F)cccc4n3)cc21.[Na+] (stereo not drawn) | – |
| 183 to 186 °C | O=C([O-])c1ccccc1SC1c2ccccc2COc2ccc(/C=C/c3ccc4cc(F)c(F)cc4n3)cc21.[Na+] (stereo not drawn) [Example 8 (b), Sodium 2-{[2-[(E)-2-(6,7-difluoro-2-quinolinyl)ethenyl]-6,11-dihydrodibenz[b,e]oxepin-11-yl]thio}benzoate] | – |
| 285 to 287 °C (dec.) | O=C([O-])c1ccc(SC2c3ccccc3COc3ccc(/C=C/c4ccc5cc(F)c(F)cc5n4)cc32)cc1.[Na+] (stereo not drawn) [Example 10 (b), Sodium 4-{[2-[(E)-2-(6,7-difluoro-2-quinolinyl)ethenyl]-6,11-dihydrodibenz[b,e]oxepin-11-yl]thio}benzoate] | – |
| 160 to 163 °C | O=C([O-])CCSC1c2ccccc2COc2ccc(/C=C/c3ccc4ccc(F)cc4n3)cc21.[Na+] (stereo not drawn) | – |
| 144 to 148 °C | O=C([O-])CCSC1c2ccccc2CSc2ccc(/C=C/c3ccc4cc(F)c(F)cc4n3)cc21.[Na+] (stereo not drawn) | – |
| 182 to 186 °C | O=C(CSC1c2ccccc2COc2ccc(/C=C/c3ccc4cc(F)c(F)cc4n3)cc21)NS(=O)(=O)C(F)(F)F.[Na] (stereo not drawn) | – |
| 211 to 220 °C | C[C@H](CSC1c2ccccc2CCc2ccc(/C=C/c3ccc4cc(F)c(F)cc4n3)cc21)C(=O)[O-].[Na+] (stereo partly drawn) | – |
| 140 to 142 °C | O=C([O-])CCSC1c2ccccc2COc2ccc(/C=C/c3cc(Cl)c4ccccc4n3)cc21.[Na+] (stereo not drawn) | – |
| 204 to 206 °C | O=C(O)CC1(CSC2c3ccccc3COc3ccc(/C=C/c4ccc5ccc(Cl)cc5n4)cc32)CC1 (stereo not drawn) | – |
| 184 to 188 °C | O=C([O-])c1cccc(SC2c3ccccc3COc3ccc(/C=C/c4ccc5cc(F)c(F)cc5n4)cc32)c1.[Na+] (stereo not drawn) [Example 9 (b), Sodium 3-{[2-[(E)-2-(6,7-difluoro-2-quinolinyl)ethenyl]-6,11-dihydrodibenz[b,e]oxepin-11-yl]thio}benzoate] | – |
| 237 to 239 °C | O=C(O)CC1(CSC2c3cc(/C=C/c4ccc5cc(F)c(Cl)cc5n4)ccc3OCc3c(F)cccc32)CC1 (stereo not drawn) | – |
| 150 to 153 °C | O=C(O)CCSC1c2ccccc2COc2ccc(/C=C/c3ccc4c(n3)CCCC4)cc21 (stereo not drawn) | – |
| 195 to 198 °C | O=C(O)CCSC1c2ccccc2COc2ccc(/C=C/c3ccc4ccc(Cl)cc4n3)cc21 (stereo not drawn) | – |
| 187 to 192 °C | CS(=O)(=O)NC(=O)CCSC1c2ccccc2COc2ccc(/C=C/c3ccc4cc(F)c(F)cc4n3)cc21.[Na] (stereo not drawn) | – |
| 246 to 254 °C | O=S(=O)([O-])CCSC1c2ccccc2COc2ccc(/C=C/c3ccc4cc(F)c(F)cc4n3)cc21.[Na+] (stereo not drawn) | – |
| 209 to 218 °C | CCC(CSC1c2ccccc2COc2ccc(/C=C/c3ccc4cc(F)c(F)cc4n3)cc21)C(=O)[O-].[Na+] (stereo not drawn) [Example 45, Sodium 3-{[2-[(E)-2-(6,7-difluoro-2-quinolinyl)ethenyl]-6,11-dihydrodibenz[b,e]oxepin-11-yl]thio}-2-ethylpropionate] | Ki [1]: 0.158 nM |
| 238 to 241 °C | O=C(O)CCSC1c2cc(/C=C/c3ccc4cc(F)c(Cl)cc4n3)ccc2OCc2c(F)cccc21 (stereo not drawn) | – |

The next lines start with the compound.

| Compound | melting point | other results |
| --- | --- | --- |
| O=C([O-])CCCC1c2ccccc2COc2ccc(/C=C/c3ccc4cc(F)c(F)cc4n3)cc21.[Na+] (stereo not drawn) [Example 51 (c), Sodium 4-[2-[(E)-2-(6,7-difluoro-2-quinolinyl)ethenyl]-6,11-dihydrodibenz[b,e]oxepin-11-yl]butanoate] | – | Ki [1]: 0.158 nM; A2 (dose of Test compound required for shifting two-times the LTD4 dose-reaction curve of control group to higher dose side) [2]: 3.6 µg/kg |
| Cc1ccc(/C=C/c2ccc3c(c2)C(SCCC(=O)[O-])c2ccccc2CO3)nc1C(C)C.[Na+] (stereo not drawn) | 137 to 139 °C | – |
| CC(C)(CC(=O)[O-])SC1c2ccccc2COc2ccc(/C=C/c3ccc4c(n3)CCCC4)cc21.[Na+] (stereo not drawn) [Example 27, Sodium 3-{[2-[(E)-2-(5,6,7,8-tetrahydro-2-quinolinyl)ethenyl]-6,11-dihydrodibenz[b,e]oxepin-11-yl]thio}-3-methylbutanoate] | 168 to 175 °C | – |
| O=C([O-])CC1(CSC2c3ccccc3COc3ccc(/C=C/c4ccc5c(n4)CCCC5)cc32)CC1.[Na+] (stereo not drawn) | 142 to 145 °C | – |
| O=C(O)CCSC1c2ccccc2COc2ccc(OCc3ccc4cc(F)c(Cl)cc4n3)cc21 (stereo not drawn) [Compound A, 11-(2-carboxyethyl)thio-2-(7-chloro-6-fluoro-quinolin-2-yl)methoxy-6,11-dihydrodibenz[b,e]oxepine, reference compound] | – | Ki [1]: 0.316 nM; A2 (dose of Test compound required for shifting two-times the LTD4 dose-reaction curve of control group to higher dose side) [2]: 16 µg/kg |
| Sodium [2-[(E)-2-(6,7-difluoro-2-quinolinyl)ethenyl]-6,11-dihydrodibenz[b,e]oxepin-11-yl]thioacetate [Example 4] | – | pKi value [1]: 9.8; A2 (dose of Test compound required for shifting two-times the LTD4 dose-reaction curve of control group to higher dose side) [2]: 3.7 µg/kg |
| O=C([O-])CCSC1c2ccccc2COc2ccc(/C=C/c3nc4cc(F)ccc4s3)cc21.[Na+] (stereo not drawn) | > 300 °C | – |
| O=C([O-])CC1(CSC2c3ccccc3COc3ccc(/C=C/c4nc5cc(F)ccc5s4)cc32)CC1.[Na+] (stereo not drawn) | 155 to 157 °C | – |
| O=C([O-])CC1(CSC2c3ccccc3COc3ccc(/C=C/c4ccc5c(F)cc(F)cc5n4)cc32)CC1.[Na+] (stereo not drawn) | 149 to 152 °C | – |
| O=C([O-])CCSC1c2ccccc2COc2ccc(/C=C/c3nc4cc(F)ccc4o3)cc21.[Na+] (stereo not drawn) | 247 to 250 °C | – |
| N#Cc1cccc2c1COc1ccc(/C=C/c3ccc4cc(F)c(F)cc4n3)cc1C2SCCC(=O)O (stereo not drawn) | 261 to 264 °C (dec.) | – |
| C[C@@H](CSC1c2ccccc2COc2ccc(/C=C/c3ccc4c(n3)CCCC4)cc21)C(=O)[O-].[Na+] (stereo partly drawn) [Example 26, Sodium 3-{[2-[(E)-2-(5,6,7,8-tetrahydro-2-quinolinyl)ethenyl]-6,11-dihydrodibenz[b,e]oxepin-11-yl]thio}-2-(R)-methylpropionate] | 168 to 173 °C | Ki [1]: 0.316 nM |
| O=C([O-])CC1(CSC2c3ccccc3COc3ccc(/C=C/c4ccc5ccc(F)cc5n4)cc32)CC1.[Na+] (stereo not drawn) | 149 to 152 °C | – |
| O=C(O)CCSC1c2ccccc2COc2ccc(/C=C/c3ccc4cc(F)c(F)cc4n3)cc21 (stereo not drawn) | 213 to 216 °C | – |
| COC(=O)c1ccc2c(c1)COc1ccc(/C=C/c3ccc4c(n3)CCCC4)cc1C2SCCC(=O)O (stereo not drawn) | 121 to 123 °C | – |
| O=C([O-])CC1(CSC2c3ccccc3COc3ccc(/C=C/c4ccc5c(F)cccc5n4)cc32)CC1.[Na+] (stereo not drawn) | 142 to 144 °C | – |
